Data from PMC3324983 (ACS Medicinal Chemistry Letters, 2012).

Experiments:
[1] = test system: tsFT210 cells; assay: Cell cycle analysis of G2-synchronized tsFT210 cells; assay type: cell-based, mouse; conditions: 5–50 μM, 4 h at 32 °C, compared with the vehicle control
[2] = test system: ROS level in tsFT210 cells; assay: Measurement of ROS in tsFT210 cells with H2DCFDA; conditions: 50 μM, 30 min at 32 °C
[3] = test system: CDK1 phosphorylation in tsFT210 cells; assay: Western blotting of CDK1 phosphorylation status in tsFT210 cells; assay type: cell-based, mouse; conditions: 5–50 μM, permissive temperature 32 °C

SMILES: CCCCCCCCCCCCCCC/C(NCc1ccccc1)=C1/C(=O)OC(CO)C1=O (stereo not drawn) [Compound 7]
- effect on G2/M arrest of tsFT210 cells after release [1]: predominantly maintained the G2/M arrest of tsFT210 cells in a concentration-dependent manner
- change of H2DCFDA fluorescence intensity (ROS) [2]: did not induce a significant change
- inhibition of the dephosphorylation of CDK1 [3]: concentration dependently inhibited the dephosphorylation of CDK1

SMILES: CCCCCCCCCCCCCCCC(NCc1cccc(C)c1)=C1C(=O)OC(CO)C1=O (stereo not drawn) [Compound 8a]
- effect on G2/M arrest of tsFT210 cells after release [1]: had little effect on tsFT210 cells
- change of H2DCFDA fluorescence intensity (ROS) [2]: did not induce a significant change
- inhibition of the dephosphorylation of CDK1 [3]: did not inhibit the dephosphorylation of CDK1 even at 50 μM

SMILES: CCCCCCCCCCCCCCCC(NCc1ccccc1O)=C1C(=O)OC(CO)C1=O (stereo not drawn) [Compound 10d]
- effect on G2/M arrest of tsFT210 cells after release [1]: predominantly maintained the G2/M arrest of tsFT210 cells in a concentration-dependent manner
- change of H2DCFDA fluorescence intensity (ROS) [2]: did not induce a significant change
- inhibition of the dephosphorylation of CDK1 [3]: concentration dependently inhibited the dephosphorylation of CDK1
